In patent US20230219965A1 (KSQ Therapeutics, Inc., priority 2020, published 2023):

molecular target: USP1/UAF1 enzyme (Homo sapiens, UniProt O94782); assay: USP1/UAF1 deubiquitination assay (ubiquitin-rhodamine 110 substrate); format: biochemical; conditions: read-out: USP1 IC50 (Ub-Rho)
Experimental: Certain Compounds of the Disclosure were assessed for USP1/UAF1 activity in a Ubiquitin Rhodamine assay modified from those described previously.
Deubiquitinase activity was measured using ubiquitin-rhodamine 110 as a substrate. Cleavage of the amide bond between rhodamine and the c-terminal glycine of ubiquitin yields an increase in fluorescence signal. The assay was conducted in 20 μl total volume of assay buffer (50 mM Tris-HCl, pH 7.8, 0.5 mM EDTA, 0.01% Bovine Serum Albumin, 1 mM DTT, 0.01% Tween-20), and 0.05 nM USP1/UAF1 enzyme. Reaction was initiated by addition of 150 nM Ubiquitin-rhodamine (Boston Biochem) substrate.
Compounds of the Disclosure, dissolved in DMSO were tested in dose response format, beginning at […].
The example compounds listed below were added to enzyme/assay buffer mix and incubated 10 min. Substrate mix was added, and reaction mix was read in kinetic mode for 30 min at Ex480/Em540 and IC50 response curves were plotted.
Data for all assay formats was calculated as percent inhibition compared with control wells. Percent inhibition was calculated using the following equation: % inhibition=100×[1−(X−min)/(max−min)], where X is the raw data readout, min is the average of the no enzyme control wells (n=32), max is the average of the DMSO control well (n=32). IC50 values were calculated using the standard four parameter curve fitting algorithm in either Prism GraphPad (La Jolla, Calif.) software, or Collaborative Drug Discovery (Burlingame, Calif.) CDD Vault. See Chem. Biol. 20(1): 55-62 (Jan. 24, 2013); Bioorg. Med. Chem. Lett. 23(20): 5660-5666 (Oct. 15, 2013).

Sequence of USP1/UAF1 enzyme (O94782 whole entry): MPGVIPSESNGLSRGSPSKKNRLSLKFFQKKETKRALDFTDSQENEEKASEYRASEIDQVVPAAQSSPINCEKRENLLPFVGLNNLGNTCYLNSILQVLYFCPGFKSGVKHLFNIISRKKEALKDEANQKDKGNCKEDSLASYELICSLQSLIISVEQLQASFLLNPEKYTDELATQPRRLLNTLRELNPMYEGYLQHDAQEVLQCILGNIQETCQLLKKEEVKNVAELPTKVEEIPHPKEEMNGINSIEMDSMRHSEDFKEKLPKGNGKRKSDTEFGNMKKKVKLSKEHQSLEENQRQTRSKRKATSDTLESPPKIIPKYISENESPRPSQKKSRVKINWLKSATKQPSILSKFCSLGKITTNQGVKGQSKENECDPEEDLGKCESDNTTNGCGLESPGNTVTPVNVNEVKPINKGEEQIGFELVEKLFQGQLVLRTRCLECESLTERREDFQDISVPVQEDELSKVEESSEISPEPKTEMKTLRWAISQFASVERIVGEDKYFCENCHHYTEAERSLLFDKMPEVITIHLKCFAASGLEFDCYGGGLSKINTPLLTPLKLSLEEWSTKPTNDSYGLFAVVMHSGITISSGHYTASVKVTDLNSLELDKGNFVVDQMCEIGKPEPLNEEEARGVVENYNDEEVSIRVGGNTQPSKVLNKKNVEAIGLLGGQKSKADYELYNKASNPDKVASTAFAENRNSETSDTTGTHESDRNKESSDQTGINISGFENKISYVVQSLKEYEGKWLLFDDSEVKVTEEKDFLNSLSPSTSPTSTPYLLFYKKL
Sequence of USP1/UAF1 enzyme (Q8TAF3 whole entry partner): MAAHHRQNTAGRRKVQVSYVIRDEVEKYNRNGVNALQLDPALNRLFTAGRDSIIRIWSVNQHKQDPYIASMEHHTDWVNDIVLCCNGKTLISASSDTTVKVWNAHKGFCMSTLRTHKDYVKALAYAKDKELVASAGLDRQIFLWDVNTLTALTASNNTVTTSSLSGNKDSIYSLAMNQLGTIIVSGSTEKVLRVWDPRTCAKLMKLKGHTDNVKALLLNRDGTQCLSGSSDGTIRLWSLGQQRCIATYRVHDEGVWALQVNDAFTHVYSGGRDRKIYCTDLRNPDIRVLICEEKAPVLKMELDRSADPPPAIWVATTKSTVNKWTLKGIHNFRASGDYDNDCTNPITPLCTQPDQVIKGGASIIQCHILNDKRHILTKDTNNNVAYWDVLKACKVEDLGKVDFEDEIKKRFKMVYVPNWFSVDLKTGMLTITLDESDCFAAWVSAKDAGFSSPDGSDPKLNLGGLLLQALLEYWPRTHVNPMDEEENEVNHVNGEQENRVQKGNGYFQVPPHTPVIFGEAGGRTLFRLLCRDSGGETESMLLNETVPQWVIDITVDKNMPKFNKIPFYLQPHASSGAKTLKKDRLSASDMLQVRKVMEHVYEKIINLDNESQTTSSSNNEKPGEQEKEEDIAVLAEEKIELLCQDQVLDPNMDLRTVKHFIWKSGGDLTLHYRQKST

First: Cn1cc(C(F)(F)F)nc1-c1ccc(CN2C(=O)CCn3nc(-c4c(OC(F)F)ncnc4C4CC4)nc32)cc1F [Example 377, 2-(4-cyclopropyl-6-(difluoromethoxy)pyrimidin-5-yl)-4-(3-fluoro-4-(1-methyl-4-(trifluoromethyl)-1H-imidazol-2-yl)benzyl)-6,7-dihydro-[1,2,4]triazolo[1,5-a]pyrimidin-5(4H)-one]
Second: CCn1cc(C(F)(F)F)nc1-c1ccc(CN2C(=O)CCn3nc(-c4c(OC)ncnc4C4CC4)nc32)cc1OC [Example 185]
The IC50 of the first is lower: under 0.1 µM for the first, 0.1 to 0.5 µM for the second. The first is the more potent here.

`CC(C)n1ncc(Cl)c1-c1cc2n(n1)CCC(=O)N2Cc1ccc(-c2ccn(C)n2)cc1` [Example 95] and `CC(C)n1ncc(Cl)c1-c1cc2n(n1)CCC(=O)N2Cc1ccc(-c2nc(C(F)(F)F)nn2C)cc1` [Example 102] fall in the same range of IC50: 0.1 to 0.5 µM for the first, 0.1 to 0.5 µM for the second.

`CCn1cc(C(F)(F)F)nc1-c1ccc(NC2CCCn3nc(-c4ccnn4C(C)C)c(Cl)c32)cc1F` (stereo not drawn) [Example 269, 3-chloro-N-(4-(1-ethyl-4-(trifluoromethyl)-1H-imidazol-2-yl)-3-fluorophenyl)-2-(1-isopropyl-1H-pyrazol-5-yl)-4,5,6,7-tetrahydropyrazolo[1,5-α]pyridin-4-amine] and `CCn1cc(C(F)(F)F)nc1-c1ccc(CN2C(=O)CCn3nc(-c4ccnn4C(C)C)c(Cl)c32)cc1` [Example 268, 3-chloro-4-(4-(1-ethyl-4-(trifluoromethyl)-1H-imidazol-2-yl)benzyl)-2-(1-isopropyl-1H-pyrazol-5-yl)-6,7-dihydropyrazolo[1,5-α]pyrimidin-5(4H)-one] cannot be ordered by IC50: over 0.5 µM for the first, over 0.5 µM for the second.

First: CCn1nc(C(F)(F)F)nc1-c1ccc(CN2C(=O)CCn3nc(-c4c(Cl)cnn4C(C)C)cc32)cc1 [Example 84]
Second: CC(C)n1ncc(Cl)c1-c1cc2n(n1)CCC(=O)N2Cc1ccc(-c2nccc(C(F)(F)F)n2)c(Cl)c1 [Example 273]
The IC50 of the first is lower: 0.1 to 0.5 µM for the first, over 0.5 µM for the second.

Compared with `COc1cc(CN2C(=O)CCn3nc(-c4c(Cl)cnn4C(C)C)cc32)ccc1-c1ncccc1Cl` [Example 311], `COc1cc(C)cnc1-c1ccc(CN2C(=O)CCn3nc(-c4c(Cl)cnn4C(C)C)cc32)cc1Cl` [Example 301] is lower in IC50: over 0.5 µM for the first, 0.1 to 0.5 µM for the second. The second is the more potent here.

First: COc1ncnc(C2CC2)c1-c1cc2n(n1)CCC[C@@H]2Oc1ccc(-c2nc(C(F)(F)F)cn2C(C)CF)cc1 (stereo partly drawn) [Example 393, (4S)-2-(4-cyclopropyl-6-methoxypyrimidin-5-yl)-4-(4-(1-(1-fluoropropan-2-yl)-4-(trifluoromethyl)-1H-imidazol-2-yl)phenoxy)-4,5,6,7-tetrahydropyrazolo[1,5-α]pyridine]
Second: COc1ncnc(C2CC2)c1-c1cc2n(n1)CCC(=O)N2Cc1ccc(-c2nc(C(F)(F)F)c[nH]2)cc1 [Example 69, 2-(4-cyclopropyl-6-methoxypyrimidin-5-yl)-4-(4-(4-(trifluoromethyl)-1H-imidazol-2-yl)benzyl)-6,7-dihydropyrazolo[1,5-α]pyrimidin-5(4H)-one]
The IC50 of the first is lower: under 0.1 µM for the first, 0.1 to 0.5 µM for the second.

`CNCc1cc(C(F)(F)F)nn1-c1ccc(CN2C(=O)CCn3nc(-c4c(OC)ncnc4C4CC4)cc32)cc1` [Example 225, 2-(4-cyclopropyl-6-methoxypyrimidin-5-yl)-4-(4-(5-((methylamino)methyl)-3-(trifluoromethyl)-1H-pyrazol-1-yl)benzyl)-6,7-dihydropyrazolo[1,5-a]pyrimidin-5(4H)-one] and `COCc1cc(C(F)(F)F)nn1-c1ccc(CN2C(=O)CCn3nc(-c4c(OC)ncnc4C4CC4)cc32)cc1` [Example 99] fall in the same range of IC50: 0.1 to 0.5 µM for the first, 0.1 to 0.5 µM for the second.

`COc1ncnc(C2CC2)c1-c1nc2n(n1)CCC(=O)N2C(C)c1ccc(-c2nc(C(F)(F)F)cn2C)cc1` (centres unmarked) [Example 378, 2-(4-cyclopropyl-6-methoxypyrimidin-5-yl)-4-(1-(4-(1-methyl-4-(trifluoromethyl)-1H-imidazol-2-yl)phenyl)ethyl)-6,7-dihydro-[1,2,4]triazolo[1,5-a]pyrimidin-5(4H)-one] and `COc1ncnc(C2CC2)c1-c1nc2n(n1)CCC(=O)N2C(C)c1ccc(-c2ncccc2N(C)C)cc1` (centres unmarked) [Example 219] cannot be ordered by IC50: under 0.1 µM for the first, under 0.1 µM for the second.

Compared with `COc1cn(C)nc1-c1ccc(CN2C(=O)CCn3nc(-c4c(Cl)cnn4C(C)C)cc32)cc1Cl` [Example 292], `CC(C)n1ncc(Cl)c1-c1cc2n(n1)CCC(=O)N2Cc1ccc(-c2nn(C)cc2C#N)c(Cl)c1` [Example 287] is higher in IC50: 0.1 to 0.5 µM for the first, over 0.5 µM for the second. The first is the more potent here.

`COc1ccnc(-c2ccc(CN3C(=O)CCn4nc(-c5c(Cl)cnn5C(C)C)cc43)cc2Cl)n1` [Example 286] and `Cc1nc(-c2ccc(CN3C(=O)CCn4nc(-c5c(Cl)cnn5C(C)C)cc43)cc2Cl)cn1C` [Example 277] cannot be ordered by IC50: over 0.5 µM for the first, over 0.5 µM for the second.

`CCn1cc(C(F)(F)F)nc1-c1ccc(CN2C(=O)CCn3nc(-c4c(OC)ncnc4C4CC4)cc32)cn1` [Example 105] and `COc1ncnc(C2CC2)c1-c1cc2n(n1)CCC(=O)N2Cc1ccc(-n2nc(C)cc2C(F)(F)F)c(F)c1` [Example 88] fall in the same range of IC50: 0.1 to 0.5 µM for the first, 0.1 to 0.5 µM for the second.

`CCn1cc(C(F)(F)F)nc1-c1ccc(CN2C(=O)[C@H](C)Cn3nc(-c4c(OC)ncnc4C4CC4)nc32)cc1` [Example 382, (R)-2-(4-cyclopropyl-6-methoxypyrimidin-5-yl)-4-(4-(1-ethyl-4-(trifluoromethyl)-1H-imidazol-2-yl)benzyl)-6-methyl-6,7-dihydro-[1,2,4]triazolo[1,5-a]pyrimidin-5(4H)-one] and `CCn1cc(C(F)(F)F)nc1-c1ccc(CN2C(=O)[C@@H](C)Cn3nc(-c4c(OC)ncnc4C4CC4)nc32)cc1` [Example 381, (S)-2-(4-cyclopropyl-6-methoxypyrimidin-5-yl)-4-(4-(1-ethyl-4-(trifluoromethyl)-1H-imidazol-2-yl)benzyl)-6-methyl-6,7-dihydro-[1,2,4]triazolo[1,5-a]pyrimidin-5(4H)-one] cannot be ordered by IC50: under 0.1 µM for the first, under 0.1 µM for the second.

`Cc1ccn2ncnc(-c3ccc(CN4C(=O)CCn5nc(-c6c(Cl)cnn6C(C)C)cc54)cc3Cl)c12` [Example 280] and `CCNc1ccc(-c2ccc(CN3C(=O)CCn4nc(-c5c(Cl)cnn5C(C)C)cc43)cc2Cl)nn1` [Example 314] cannot be ordered by IC50: over 0.5 µM for the first, over 0.5 µM for the second.

First: COc1ncnc(C2CC2)c1-c1nc2n(n1)CCC(=O)N2C(C)c1ccc(-c2nc(C(F)(F)F)cn2C(C)C)c(F)c1OC (centres unmarked) [Example 218]
Second: COc1ncnc(C2CC2)c1-c1nc2n(Cc3ccc(-c4nc(C(F)(F)F)cn4C)c(F)c3)c(=O)ccn2n1 [Example 386, 2-(4-cyclopropyl-6-methoxypyrimidin-5-yl)-4-(3-fluoro-4-(1-methyl-4-(trifluoromethyl)-1H-imidazol-2-yl)benzyl)-[1,2,4]triazolo[1,5-a]pyrimidin-5(4H)-one]
The IC50 of the first is higher: 0.1 to 0.5 µM for the first, under 0.1 µM for the second. The second is the more potent here.

`COc1cccnc1-c1ccc(CN2C(=O)CCn3nc(-c4c(OC)ncnc4C4CC4)cc32)cc1F` [Example 317] and `COc1cccnc1-c1ccc(CN2C(=O)CCn3nc(-c4c(OC)ncnc4C4CC4)nc32)cc1F` [Example 308] fall in the same range of IC50: 0.1 to 0.5 µM for the first, 0.1 to 0.5 µM for the second.

`CCn1cc(C(F)(F)F)nc1-c1ccc(CN2C(=O)CCn3nc(-c4cccc5c4N(C)CC5)cc32)cc1` [Example 23, 4-(4-(1-ethyl-4-(trifluoromethyl)-1H-imidazol-2-yl)benzyl)-2-(1-methylindolin-7-yl)-6,7-dihydropyrazolo[1,5-a]pyrimidin-5(4H)-one] and `CCn1cc(C(F)(F)F)nc1-c1ccc(CN2C(=O)CCn3nc(-c4c(C5CC5)ccnc4OC(F)F)nc32)cc1` [Example 373, 2-(4-cyclopropyl-2-(difluoromethoxy)pyridin-3-yl)-4-(4-(1-ethyl-4-(trifluoromethyl)-1H-imidazol-2-yl)benzyl)-6,7-dihydro-[1,2,4]triazolo[1,5-a]pyrimidin-5(4H)-one] fall in the same range of IC50: 0.1 to 0.5 µM for the first, 0.1 to 0.5 µM for the second.

First: COc1cccnc1-c1ccc(N[C@@H]2CCCn3nc(-c4c(OC)ncnc4C4CC4)cc32)cc1F (single isomer, unassigned) [Example 251]
Second: COc1cccnc1-c1ccc(N[C@H]2CCCn3nc(-c4c(OC)ncnc4C4CC4)cc32)cc1F (single isomer, unassigned) [Example 252]
The IC50 of the first is higher: over 0.5 µM for the first, 0.1 to 0.5 µM for the second.

`COc1cccnc1-c1ccc(N[C@@H]2CCCn3nc(-c4c(OC)ncnc4C4CC4)cc32)cc1Cl` (single isomer, unassigned) [Example 253] and `COc1ncnc(C2CC2)c1-c1nc2n(n1)CCC(=O)N2Cc1ccc(-c2ncccc2OC(C)C)c(Cl)c1` [Example 295] fall in the same range of IC50: 0.1 to 0.5 µM for the first, 0.1 to 0.5 µM for the second.

Compared with `CCn1cc(C(F)(F)F)nc1-c1ccc(N(C)C2CCCn3nc(-c4c(Cl)cnn4C(C)C)nc32)cc1` (centres unmarked) [Example 260], `CC(C)n1cc(C(F)(F)F)nc1-c1ccc(Cn2c(=O)ccn3nc(-c4c(OC(F)F)ncnc4C4CC4)nc23)cc1` [Example 344, 2-(4-cyclopropyl-6-(difluoromethoxy)pyrimidin-5-yl)-4-(4-(1-isopropyl-4-(trifluoromethyl)-1H-imidazol-2-yl)benzyl)-[1,2,4]triazolo[1,5-a]pyrimidin-5(4H)-one] is lower in IC50: 0.1 to 0.5 µM for the first, under 0.1 µM for the second.
